In patent US6534482B1, “Expression vectors for stimulating an immune response and methods of using the same” (priority 1998, dated 2003):
“Also recorded” adds a separate entry of the source.

Columns and labels:
CTL response = test system: CTL response; set-up: species or system HLA-A2.1/K^b-H-2^bxs transgenic mice; details: mouse; for immunogenicity of the peptide administered in IFA (in words): in vivo; for Immunogenicity In Vivo (IFA): No. CTL-Positive Cultures: sc
[1] = test system: mouse and human MHC class II haplotypes; details: wide range of mouse and human MHC class II haplotypes; cited from earlier work
[2] = mouse, in vivo; cited from earlier work

| Molecule | immunogenicity of the peptide administered in IFA (in words) (CTL response) | Immunogenicity In Vivo (IFA): No. CTL-Positive Cultures (CTL response) | Immunogenicity In Vivo (IFA): CTL Response (Geo. Mean ΔLU) (CTL response) | MHC binding affinity (in words) [1] | immunogenicity in H-2^b mice (in words) [2] |
| --- | --- | --- | --- | --- | --- |
| CSCC[C@H](NC(=O)[C@@H](N)Cc1ccc(O)cc1)C(=O)N[C@@H](CC(=O)O)C(=O)N[C@@H](CC(=O)O)C(=O)N[C@H](C(=O)N[C@H](C(=O)N[C@@H](CC(C)C)C(=O)NCC(=O)N[C@@H](C)C(=O)O)C(C)C)C(C)C [HBV Pol 55 1-A] | weakly or nonimmunogenic; also recorded: essentially nonimmunogenic | 0/6 |  |  |  |
| CC(C)C[C@H](NC(=O)[C@H](CO)NC(=O)[C@H](CC(C)C)NC(=O)[C@@H](N)Cc1c[nH]c2ccccc12)C(=O)N[C@@H](CC(C)C)C(=O)N[C@H](C(=O)N1CCC[C@H]1C(=O)N[C@@H](Cc1ccccc1)C(=O)N[C@H](C(=O)O)C(C)C)C(C)C [HBV Env 335] | immunogenic | 4/6 | 5.3 (1.6) ΔLU |  |  |
| CC(C)[C@H](NC(=O)[C@@H](N)[C@@H](C)O)C(=O)N[C@@H](Cc1ccc(O)cc1)C(=O)N[C@@H](Cc1ccc(O)cc1)C(=O)NCC(=O)N[C@H](C(=O)N1CCC[C@H]1C(=O)N[C@H](C(=O)N[C@@H](Cc1c[nH]c2ccccc12)C(=O)N[C@@H](CCCCN)C(=O)O)C(C)C)C(C)C [HIV Env 49] |  | 28/33 | 13.4 (3.1) ΔLU |  |  |
| CC[C@H](C)[C@H](NC(=O)CNC(=O)[C@H](C)NC(=O)[C@H](CCCCN)NC(=O)[C@H](Cc1c[nH]c2ccccc12)NC(=O)[C@H](CC(C)C)NC(=O)[C@@H](NC(=O)[C@@H](N)Cc1c[nH]cn1)[C@@H](C)O)C(=O)N[C@@H](CC(C)C)C(=O)N[C@@H](Cc1ccc(O)cc1)C(=O)N[C@@H](CCCCN)C(=O)O [HBV Pol 149] |  | 6/6 | 13.1 (1.2) ΔLU |  |  |
| CC(C)C[C@H](NC(=O)[C@@H](NC(=O)[C@@H](N)CO)[C@@H](C)O)C(=O)N1CCC[C@H]1C(=O)N[C@@H](CCC(=O)O)C(=O)N[C@H](C(=O)N[C@H](C(=O)N[C@H](C(=O)N[C@H](C(=O)N[C@@H](CCCNC(=N)N)C(=O)N[C@@H](CCCNC(=N)N)C(=O)O)C(C)C)C(C)C)[C@@H](C)O)[C@@H](C)O [HBV Core 141] |  | 6/6 | 12.1 (2.6) ΔLU |  |  |
| CC[C@H](C)[C@H](N)C(=O)N[C@@H](CC(C)C)C(=O)N[C@@H](CCCCN)C(=O)N[C@@H](CCC(=O)O)C(=O)N1CCC[C@H]1C(=O)N[C@H](C(=O)N[C@@H](Cc1c[nH]cn1)C(=O)NCC(=O)N[C@H](C(=O)O)C(C)C)C(C)C [HIV Pol 476] |  | 2/5 | 15.2 (2.9) ΔLU |  |  |
| AKFVAAWTLKAAA [PADRE] |  |  |  | high MHC binding affinity | highly immunogenic |
